Key:
[1] = DRUGMATRIX: beta-Lactamase enzyme inhibition (substrate: Nitrocefin); design: species or system Bacillus cereus; conditions: Not Active = under 50% inhibition at 10 µM
Cytochrome P450 2A6 = biological target: T1, Cytochrome P450 2A6 (Homo sapiens, UniProt P11509); conditions: bti-tn-5b1-4; note: in other assays of this panel Not Active means under 50% inhibition at 10 µM
T1 sequence (P11509 whole entry): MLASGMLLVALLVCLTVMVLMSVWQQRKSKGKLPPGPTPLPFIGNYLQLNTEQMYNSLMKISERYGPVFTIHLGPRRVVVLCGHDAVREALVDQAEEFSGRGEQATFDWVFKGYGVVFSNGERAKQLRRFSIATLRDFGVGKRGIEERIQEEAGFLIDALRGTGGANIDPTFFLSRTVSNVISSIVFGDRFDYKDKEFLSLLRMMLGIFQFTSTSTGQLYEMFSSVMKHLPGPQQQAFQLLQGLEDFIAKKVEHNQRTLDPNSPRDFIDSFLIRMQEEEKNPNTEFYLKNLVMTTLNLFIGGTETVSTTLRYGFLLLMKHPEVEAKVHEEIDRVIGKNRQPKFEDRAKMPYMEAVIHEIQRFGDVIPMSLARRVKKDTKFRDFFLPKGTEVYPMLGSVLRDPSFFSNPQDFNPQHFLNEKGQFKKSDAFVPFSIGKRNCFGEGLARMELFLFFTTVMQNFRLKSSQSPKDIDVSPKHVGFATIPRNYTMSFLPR

[2] = biological target: T2, Neuropeptide Y receptor type 1 (Homo sapiens, UniProt P25929); assay type: cell membranes, Membrane; conditions: sk-n-mc; note: in other assays of this panel Not Active means under 50% inhibition at 10 µM
T2 sequence (P25929 whole entry): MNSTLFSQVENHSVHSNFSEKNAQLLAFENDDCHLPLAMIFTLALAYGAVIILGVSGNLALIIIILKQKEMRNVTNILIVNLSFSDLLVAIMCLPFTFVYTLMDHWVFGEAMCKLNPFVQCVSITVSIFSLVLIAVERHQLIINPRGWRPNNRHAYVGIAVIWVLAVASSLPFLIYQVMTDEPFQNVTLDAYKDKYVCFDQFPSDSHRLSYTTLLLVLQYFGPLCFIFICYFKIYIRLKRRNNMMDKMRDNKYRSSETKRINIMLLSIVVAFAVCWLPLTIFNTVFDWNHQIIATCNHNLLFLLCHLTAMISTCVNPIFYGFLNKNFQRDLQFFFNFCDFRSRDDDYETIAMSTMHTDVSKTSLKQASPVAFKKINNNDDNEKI

[3] = biological target: T3, C-X-C chemokine receptor type 2 (Homo sapiens, UniProt P25025); assay type: cell membranes, Membrane; conditions: cho-k1; note: in other assays of this panel Not Active means under 50% inhibition at 10 µM
T3 sequence (P25025 whole entry): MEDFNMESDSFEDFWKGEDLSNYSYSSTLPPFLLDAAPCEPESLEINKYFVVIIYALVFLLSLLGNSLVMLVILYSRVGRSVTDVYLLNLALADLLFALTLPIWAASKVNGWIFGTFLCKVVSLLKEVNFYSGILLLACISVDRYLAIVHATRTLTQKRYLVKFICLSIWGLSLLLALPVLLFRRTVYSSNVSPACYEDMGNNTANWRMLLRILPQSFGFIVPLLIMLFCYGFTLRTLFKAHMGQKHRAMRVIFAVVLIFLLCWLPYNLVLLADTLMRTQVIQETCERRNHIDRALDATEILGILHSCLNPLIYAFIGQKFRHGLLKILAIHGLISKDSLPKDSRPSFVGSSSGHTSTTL

[4] = DRUGMATRIX: GABAA, Chloride Channel, TBOB radioligand binding (ligand: [3H] TBOB); assay type: cell membranes, Rattus norvegicus, Wistar, Cerebral cortex, Membrane; conditions: Not Active = under 50% inhibition at 10 µM
[5] = biological target: Beta-1 adrenergic receptor (Homo sapiens, UniProt P08588); experiment: DRUGMATRIX: Adrenergic beta1 radioligand binding (ligand: [125I] Cyanopindolol); assay type: cell membranes, CHO-K1, Membrane; conditions: cho-k1; Not Active = under 50% inhibition at 10 µM
Chain of Beta-1 adrenergic receptor (P08588 whole entry): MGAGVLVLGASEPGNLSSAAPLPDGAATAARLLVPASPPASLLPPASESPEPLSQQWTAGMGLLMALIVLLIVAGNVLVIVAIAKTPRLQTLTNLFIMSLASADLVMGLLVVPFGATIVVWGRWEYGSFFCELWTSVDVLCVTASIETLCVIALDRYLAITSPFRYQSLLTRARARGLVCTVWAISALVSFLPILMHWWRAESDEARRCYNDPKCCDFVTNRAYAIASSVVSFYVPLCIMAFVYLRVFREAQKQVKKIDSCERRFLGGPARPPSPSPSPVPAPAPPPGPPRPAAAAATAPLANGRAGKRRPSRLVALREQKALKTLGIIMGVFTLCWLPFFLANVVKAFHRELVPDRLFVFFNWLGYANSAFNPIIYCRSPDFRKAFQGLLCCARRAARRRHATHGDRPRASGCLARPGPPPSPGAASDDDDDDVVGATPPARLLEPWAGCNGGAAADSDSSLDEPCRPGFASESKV

[6] = DRUGMATRIX: Potassium Channel [KATP] radioligand binding (ligand: [3H] Glyburide); assay type: cell membranes, Membrane; conditions: hit-t15; Not Active = under 50% inhibition at 10 µM
[7] = DRUGMATRIX: Glutamate, AMPA radioligand binding (ligand: [3H] AMPA); assay type: cell membranes, Rattus norvegicus, Wistar, Cerebral cortex, Membrane; conditions: Not Active = under 50% inhibition at 10 µM
[8] = biological target: Platelet-activating factor receptor (Homo sapiens, UniProt P25105); experiment: biochemical; assay type: tissue-based; conditions: platelet; note: in other assays of this panel Not Active means under 50% inhibition at 10 µM
Chain of Platelet-activating factor receptor (P25105 whole entry): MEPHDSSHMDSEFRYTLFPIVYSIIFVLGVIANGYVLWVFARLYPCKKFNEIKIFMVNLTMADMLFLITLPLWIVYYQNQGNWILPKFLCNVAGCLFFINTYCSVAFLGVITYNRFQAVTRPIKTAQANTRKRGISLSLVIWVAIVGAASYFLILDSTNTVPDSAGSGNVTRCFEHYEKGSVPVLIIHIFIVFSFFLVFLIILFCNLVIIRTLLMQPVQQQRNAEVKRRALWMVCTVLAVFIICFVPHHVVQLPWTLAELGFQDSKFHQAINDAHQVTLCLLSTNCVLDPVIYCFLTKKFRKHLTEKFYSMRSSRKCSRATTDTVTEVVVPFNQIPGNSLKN

Substance-P receptor = Substance-P receptor (Homo sapiens, UniProt P25103); assay type: cell membranes, Membrane; conditions: cho; note: in other assays of this panel Not Active means under 50% inhibition at 10 µM
Chain of Substance-P receptor (P25103 whole entry): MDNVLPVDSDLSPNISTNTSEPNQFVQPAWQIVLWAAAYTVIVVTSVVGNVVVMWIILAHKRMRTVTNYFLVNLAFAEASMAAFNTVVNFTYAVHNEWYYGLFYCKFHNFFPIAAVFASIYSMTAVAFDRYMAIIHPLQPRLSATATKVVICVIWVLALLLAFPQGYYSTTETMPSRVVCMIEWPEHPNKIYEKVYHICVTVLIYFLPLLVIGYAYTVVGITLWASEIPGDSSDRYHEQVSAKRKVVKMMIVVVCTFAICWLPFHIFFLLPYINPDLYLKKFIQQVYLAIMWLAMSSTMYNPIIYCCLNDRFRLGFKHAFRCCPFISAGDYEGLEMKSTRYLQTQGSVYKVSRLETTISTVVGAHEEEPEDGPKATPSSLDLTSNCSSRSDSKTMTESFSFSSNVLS

THIMEROSAL
Not Active: IC50 [1] | Ki [1] | IC50 (Cytochrome P450 2A6) | Ki (Cytochrome P450 2A6) | IC50 [2] | Ki [2] | IC50 [3] | Ki [3] | IC50 [4] | Ki [4] | IC50 [5] | Ki [5] | IC50 [6] | Ki [6] | IC50 [7] | Ki [7] | IC50 [8] | Ki [8] | IC50 (Substance-P receptor) | Ki (Substance-P receptor)

Reference: ChEMBL document CHEMBL1909046, “DrugMatrix in vitro pharmacology data”
